Reference: PMC12430429, “Synthesis, Structure, DNA/BSA Binding, DNA Cleaving, Cytotoxic and SOD Mimetic Activities of Copper(II) Complexes Derived from Methoxybenzylamine Schiff Base Ligands” (Molecules, 2025)

Legend:
[1] = tested on: supercoiled DNA plasmid pBR322; assay: DNA cleavage assay (agarose gel electrophoresis); format: biochemical; settings: for Form I (%) / Form II (%) / Form III (%): 3 h, 37 °C, 250 ng pDNA
Source text: The gel electrophoresis separation of the supercoiled DNA plasmid pBR322 induced by prepared copper(II) complexes is shown in Figure 7. […] The cleavage activity of 4a and 4c increased remarkably with increasing concentration.
The DNA cleaving activities were also quantified using the “geneQUANT software” (Cleaver Scientific, UK). Data are expressed as percentage (%) expression of the amount of pDNA that has passed through the effect of the nuclease activity of the copper complex from the uncleaved supercoiled Form I to the cleaved Form II (open-circular pDNA) or Form III (linear pDNA) (Table 5). […] Therefore, each percentage can also be converted to the mass of pDNA turned to Form II or III. For example, for complex 4a at a 1 mM concentration, 41.2% of pDNA was cleaved to Form II, which is 103 ng of pDNA, or at a 3 mM concentration, 46.2% corresponds to 115.5 ng of pDNA. Quantification allows us to compare the specific complexes more precisely. […] Some aggregation might be present at higher concentrations, keeping the amount of reactive monomer at a lower level.
The ability of copper(II) complexes to cleave DNA was examined by following the conversion of supercoiled plasmid DNA (Form I) to the open-circular DNA (Form II) and/or linear DNA (forms using agarose gel electrophoresis to separate the cleavage products.
In general, 250 ng of the DNA plasmid pBBR 322 (in 25 mM TRIS-HCl buffer solution, pH 7.5) was treated with different concentrations (1 mM, 3 mM and 5 mM) of the copper(II) complex (dissolved in DMSO) for 3 h at 37 °C. After that, each reaction was quenched by adding 4 μL of a Smart Glow Loading Dye® (loading buffer solution with 0.01% Safe Green dye, 50% glycerol and 250 mM EDTA, pH 8.0) and the sample subjected to electrophoresis (MyGel Mini electrophoresis system®, Accuris, Edison, NJ, USA) on a 0.9% agarose gel containing TAE buffer (40 mM TRIS, 20 mM acetic acid and 1 mM EDTA) at a voltage of 55 V/40 mA for about 1.5 h. As a “running buffer”, TAE buffer (40 mM TRIS, 20 mM acetic acid and 1 mM EDTA) was used. The resulting gels were visualized with UV light and scanned by a mobile device, an Apple iPhone 11 cam 26 mm f1.8. DNA cleaving activities were quantified using the “geneQUANT software” (version 4.3.9, Cleaver Scientific, Rugby, UK).
In the following tables, the percentage (%) expression of the amount of pDNA that has passed through the effect of the nuclease activity of the copper complex from the uncleaved supercoiled form I to the cleaved form II (open circular pDNA) or form III (linear pDNA). Quantitative evaluation was performed using the […] (Cleaver Scientific, UK). V (tested sample) = 20 ul; c (pDNA) = 250 […]
Figure S2-1: The original gel scan: upper left lines 1 – 4 complex 4a (0 mM, 1 mM, 3mM, 5mM), upper lines 6 – 9 complex 4b (0 mM, 1 mM, 3mM, 5mM), lower lines 1 – 4 complex 4c (0 mM, 1 mM, 3mM, […]
(1 picture or pasted object on this page, not shown here)

[2] = tested on: HepG2 cells; assay: MTT cytotoxicity assay, HepG2; format: cell-based, human; settings: 72 h
Experimental: The cytotoxicity study of the prepared copper(II) complexes was performed using the MTT assay on human cell lines—A549 (adenocarcinoma human alveolar basal epithelial cell line), HepG2 (human liver cancer cell line) and HEL (human lung fibroblast cell line, normal cells).
The cytotoxicity of the prepared copper(II) complexes in human cell lines was evaluated using the 3-(4,5-dimethylthiazol-2-yl)-2,5-diphenyltetrazolium bromide (MTT) assay following the protocol by Mosmann. Briefly, A549 (human lung epithelial cells, carcinoma), HepG2 (human liver epithelial cells, carcinoma) and HEL (human lung fibroblast cells, normal) cells were seeded in plastic 96-well plates at a density of 1.5–2 × 10^4 cells per well. […] After the treatment, the samples were washed with phosphate-buffered saline (PBS), followed by 4 h of incubation with 1 mg/mL of MTT. Subsequently, the MTT solution was removed, and the formed formazane solids were dissolved in dimethyl sulfoxide for 30 min. The photometric evaluation (at 540 nm and 690 nm) was carried out using an xMark™ Microplate Absorbance Spectrophotometer (Bio-Rad, Hercules, CA, USA) [88].
A549 (ATCC® CCL-185), HepG2 (ATCC® HB-8065) and HEL299 (ATCC® CCL-137) cells were obtained from Lambda Life (Bratislava, Slovakia). A549 cells were kept in Dulbecco’s Modified Eagle’s Medium (DMEM) supplemented with 10% fetal bovine serum (FBS) and 1% antibiotics (penicillin and streptomycin). HepG2 cells were kept in Williams medium supplemented with 10% fetal bovine serum (FBS) and 1% antibiotics (penicillin and streptomycin). HEL299 cells were kept in Minimum Essential Medium (MEM) supplemented with 10% fetal bovine serum (FBS), 1% antibiotics (penicillin and streptomycin) and 1% non-essential amino acids (NEAA). The cells were cultured in a humidified atmosphere of 5% CO2 at 37 °C. Once the cells reached approximately 80% confluence, they were harvested and subcultured after trypsin treatment.

[3] = molecular target: bovine serum albumin (BSA) (Bos taurus, UniProt P02769); assay: Bovine serum albumin binding (tryptophan fluorescence quenching); settings: for dynamic quenching constant Ksv / quenching constant kq: BSA 3 μM, citrate buffer pH 7.0; for association binding constant KBSA / n (number of binding sites for albumin): Scatchard equation
Chain of bovine serum albumin (BSA) (P02769 25-607): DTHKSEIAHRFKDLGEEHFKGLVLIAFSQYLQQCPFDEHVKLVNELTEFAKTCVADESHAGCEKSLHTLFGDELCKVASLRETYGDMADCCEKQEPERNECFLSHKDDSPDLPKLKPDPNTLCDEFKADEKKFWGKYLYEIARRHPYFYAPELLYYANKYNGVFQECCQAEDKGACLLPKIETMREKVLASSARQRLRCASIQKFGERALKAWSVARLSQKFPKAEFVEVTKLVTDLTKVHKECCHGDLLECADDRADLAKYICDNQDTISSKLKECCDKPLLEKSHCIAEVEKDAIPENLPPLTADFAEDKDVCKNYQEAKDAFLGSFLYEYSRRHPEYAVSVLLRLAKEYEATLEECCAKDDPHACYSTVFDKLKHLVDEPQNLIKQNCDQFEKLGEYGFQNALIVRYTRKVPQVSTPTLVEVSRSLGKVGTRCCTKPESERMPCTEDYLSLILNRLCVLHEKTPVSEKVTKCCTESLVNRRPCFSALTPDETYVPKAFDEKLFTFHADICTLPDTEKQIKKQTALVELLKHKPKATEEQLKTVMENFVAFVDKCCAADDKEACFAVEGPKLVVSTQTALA
Experimental: The fluorescence emission spectra of BSA show intense fluorescence emission at 336 nm upon excitation at 280 nm. This is due to the presence of two tryptophan residues (Trp134 and Trp212). Fluorescence quenching data were analyzed to obtain various binding parameters for the interaction of complexes 4a–c with BSA.
The interaction of complexes with serum albumin was characterized by the Stern–Volmer constant Ksv and the quenching constant kq, which was calculated using the Stern–Volmer equation (Figure S4-2) together with the associate binding constant KBSA and the number of binding sites per albumin n determined from the Scatchard equations (Equation (6), Figure S4-3); the values are summarized in Table 6.
The BSA binding of complexes 4a–c was studied by tryptophan fluorescence emission quenching experiments using BSA (3 μM) in citrate buffer solution (containing 15 mM trisodium citrate and 150 mM sodium chloride at pH 7.0). The emission intensity quenching of BSA tryptophan residues at 336 nm was measured by increasing the concentration of the quencher complexes 4a–c. The concentration of the added complexes ranged from 0 to 0.2 mM. The fluorescence emission spectra were recorded in the 300–420 nm range and with an excitation wavelength of 280 nm. The values of the Stern–Volmer constant KSV (in M^−1), the BSA binding constant K (in M^−1) for the compound–BSA interaction and the BSA quenching constant kq (in M^−1 s^−1) have been calculated from the Stern–Volmer (Equations (2)–(4)). and Scatchard equations (Equation (6)):(6) ΔI/Io/[Q]=nK−KΔI/Io
The BSA binding constant K (in M^−1) can be calculated from the slope of the Scatchard plots, and the number of binding sites per albumin (n) is given by the ratio of the y intercept to the slope.

SMILES	mass of pDNA in Form I ([1]; complex 1 mM, of 250 ng pDNA)	mass of pDNA in Form II ([1]; complex 1 mM, of 250 ng pDNA)	mass of pDNA in Form I ([1]; complex 3 mM, of 250 ng pDNA)	mass of pDNA in Form II ([1]; complex 3 mM, of 250 ng pDNA)	Form I (%) ([1]; complex 1 × 10^−3 M)	Form II (%) ([1]; complex 1 × 10^−3 M)	Form III (%) ([1]; complex 1 × 10^−3 M)	Form I (%) ([1]; complex 3 × 10^−3 M)	Form II (%) ([1]; complex 3 × 10^−3 M)	Form III (%) ([1]; complex 3 × 10^−3 M)	Form I (%) ([1]; complex 5 × 10^−3 M)	Form II (%) ([1]; complex 5 × 10^−3 M)	IC50 [2] [µM]	dynamic quenching constant Ksv [3]	quenching constant kq [3]	association binding constant KBSA [3]	n (number of binding sites for albumin) [3]	mass of pDNA in Form I ([1]; complex 5 mM, of 250 ng pDNA)	mass of pDNA in Form II ([1]; complex 5 mM, of 250 ng pDNA)	Form III (%) ([1]; complex 5 × 10^−3 M)	further results
COc1ccccc1CN=Cc1ccccc1[O-].COc1ccccc1CN=Cc1ccccc1[O-].[Cl-].[Cl-].[Cu+2].[Cu+2] [Complex 4a, [Cu2 (Sal-2-MeOBn)2 Cl2]]	147 ng	103 ng	134,5 ng	115,5 ng	58,8%	41,2%	0	53,8%	46,2%	0	0%	0%	17.9 ± 2.6	7.16 (±0.03) M^−1 × 10^4	7.16 (±0.03) M^−1s^−1 × 10^12	6.66 (±0.30) M^−1 × 10^4	1.03	–	–	–	mass of pDNA in Form III ([1]; complex 5 mM, of 250 ng pDNA): 250 ng
COc1cccc(CN=Cc2ccccc2[O][Cu][O]c2ccccc2C=NCc2cccc(OC)c2)c1 [Complex 4b, [Cu (Sal-3-MeOBn)2]]	146,25 ng	103,75 ng	140,5 ng	109,5 ng	58,5%	41,5%	0	56,2%	43,8%	0	48,2%	51,8%	32.8 ± 4.9	6.39 (±0.06) M^−1 × 10^4	6.39 (±0.06) M^−1s^−1 × 10^12	5.37 (±0.25) M^−1 × 10^4	0.94	120,5 ng	129,5 ng	0	–
COc1ccc(CN=Cc2ccccc2[O-])cc1.COc1ccc(CN=Cc2ccccc2[O-])cc1.[Cl-].[Cl-].[Cu+2].[Cu+2] [Complex 4c, [Cu2 (Sal-4-MeOBn)2 Cl2]]	124,5 ng	125,5 ng	–	250 ng	49,8%	50,2%	0	0%	–	0	4,7%	95,3%	21.6 ± 4.9	4.86 (±0.15) M^−1 × 10^4	4.86 (±0.15) M^−1s^−1 × 10^12	4.77 (±0.20) M^−1 × 10^4	1.16	11,75 ng	238,25 ng	0	–
